Our source for the IC50 values is patent US10562909B2, “Fused quadracyclic compounds, compositions and uses thereof” (Tabomedex Biosciences, LLC, priority 2016, dated 2020).

The target in this test is MAPKAPK2 (Homo sapiens, UniProt P49137). Kind of test: MK2 Enzymatic Assay. The conditions noted are these: 0.5 nM MAPKAPK2, 3 μM ATP, 2 μM Ser/Thr4 peptide, 23° C., values given as concentration bins. The format is biochemical. In a few lines:
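Percent phosphorylation was derived from coumarin and fluorescein emissions relative to 0% and 100% phospho-peptide controls, read after a 120 min development step. Reactions used 2× stocks of 1 nM kinase, 4 μM peptide and 6 μM ATP; enzyme and peptide sat 20 min before a 120 min ATP reaction.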

Bounds are passed on as bounds.

Sequence of MAPKAPK2 (P49137 whole entry, species assumed): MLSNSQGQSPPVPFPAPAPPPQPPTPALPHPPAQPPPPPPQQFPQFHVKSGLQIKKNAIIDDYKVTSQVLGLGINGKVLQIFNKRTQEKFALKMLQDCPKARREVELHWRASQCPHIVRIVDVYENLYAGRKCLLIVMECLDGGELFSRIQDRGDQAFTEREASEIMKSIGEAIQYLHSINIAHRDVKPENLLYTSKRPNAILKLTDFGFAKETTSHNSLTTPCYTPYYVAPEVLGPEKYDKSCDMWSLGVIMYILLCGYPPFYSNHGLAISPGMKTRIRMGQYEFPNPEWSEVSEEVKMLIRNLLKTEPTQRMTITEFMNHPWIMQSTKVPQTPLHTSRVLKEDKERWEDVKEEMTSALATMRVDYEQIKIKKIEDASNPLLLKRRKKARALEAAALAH

Broadly, the IC50 is the concentration at which inhibition is half-maximal. Read a low IC50 as inhibition by little substance. In turn, `CN[C@@H]1CCN(c2ccc3c(c2)Cn2cc(-c4ccc(F)cc4)cc2-c2ncnn2-3)C1` [Compound 409, (R)-1-(12-(4-fluorophenyl)-9H-benzo[e]pyrrolo[1,2-a][1,2,4]triazolo[5,1-c][1,4]diazepin-7-yl)-N-methylpyrrolidin-3-amine] returned an IC50 of 100 to 200 nM. The figure for `CN[C@H]1CCN(c2ccc3c(c2)Cn2cc(-c4ccc(F)cc4)cc2-c2ncnn2-3)C1` [Compound 410, (S)-1-(12-(4-fluorophenyl)-9H-benzo[e]pyrrolo[1,2-a][1,2,4]triazolo[5,1-c][1,4]diazepin-7-yl)-N-methylpyrrolidin-3-amine] is 50 to 100 nM. The figure for `CN1CC2(CCN(c3ccc4c(c3)Cn3cc(-c5ccc(F)cc5)cc3-c3ncnn3-4)C2)C1` [Compound 412, 12-(4-fluorophenyl)-7-(2-methyl-2,6-diazaspiro[3.4]octan-6-yl)-9H-benzo[e]pyrrolo[1,2-a][1,2,4]triazolo[5,1-c][1,4]diazepine] is under 50 nM; for `CN(C)C[C@@H]1CCN(c2ccc3c(c2)Cn2cc(-c4ccc(F)cc4)cc2-c2ncnn2-3)C1` [Compound 413, (S)-1-(1-(12-(4-fluorophenyl)-9H-benzo[e]pyrrolo[1,2-a][1,2,4]triazolo[5,1-c][1,4]diazepin-7-yl)pyrrolidin-3-yl)-N,N-dimethylmethanamine] it is under 50 nM.

Take `CN(C)C[C@H]1CCN(c2ccc3c(c2)Cn2cc(-c4ccc(F)cc4)cc2-c2ncnn2-3)C1` [Compound 414, (R)-1-(1-(12-(4-fluorophenyl)-9H-benzo[e]pyrrolo[1,2-a][1,2,4]triazolo[5,1-c][1,4]diazepin-7-yl)pyrrolidin-3-yl)-N,N-dimethylmethanamine]: the IC50 lay within 50 to 100 nM. `CN(C)C[C@H]1CN(c2ccc3c(c2)Cn2cc(-c4ccc(F)cc4)cc2-c2ncnn2-3)C[C@H]1O` [Compound 415, (3S,4S)-4-((dimethylamino)methyl)-1-(12-(4-fluorophenyl)-9H-benzo[e]pyrrolo[1,2-a][1,2,4]triazolo[5,1-c][1,4]diazepin-7-yl)pyrrolidin-3-ol] came in with an IC50 of 100 to 200 nM. Then `CN(C)C[C@@H]1CN(c2ccc3c(c2)Cn2cc(-c4ccc(F)cc4)cc2-c2ncnn2-3)C[C@@H]1O` [Compound 416, (3R,4R)-4-((dimethylamino)methyl)-1-(12-(4-fluorophenyl)-9H-benzo[e]pyrrolo[1,2-a][1,2,4]triazolo[5,1-c][1,4]diazepin-7-yl)pyrrolidin-3-ol], with under 50 nM; and `CN(C)[C@@H]1CN(c2ccc3c(c2)Cn2cc(-c4ccc(F)cc4)cc2-c2ncnn2-3)C[C@H]1O` [Compound 417, (3R,4R)-4-(dimethylamino)-1-(12-(4-fluorophenyl)-9H-benzo[e]pyrrolo[1,2-a][1,2,4]triazolo[5,1-c][1,4]diazepin-7-yl)pyrrolidin-3-ol], with 50 to 100 nM; and `CN(C)[C@H]1CN(c2ccc3c(c2)Cn2cc(-c4ccc(F)cc4)cc2-c2ncnn2-3)C[C@@H]1O` [Compound 418, (3S,4S)-4-(dimethylamino)-1-(12-(4-fluorophenyl)-9H-benzo[e]pyrrolo[1,2-a][1,2,4]triazolo[5,1-c][1,4]diazepin-7-yl)pyrrolidin-3-ol], with 100 to 200 nM.

Consider `C[C@H](CO)NC[C@@H]1CCN(c2ccc3c(c2)Cn2cc(-c4ccc(F)cc4)cc2-c2ncnn2-3)C1` [Compound 419, (R)-2-((((S)-1-(12-(4-fluorophenyl)-9H-benzo[e]pyrrolo[1,2-a][1,2,4]triazolo[5,1-c][1,4]diazepin-7-yl)pyrrolidin-3-yl)methyl)amino)propan-1-ol], for which the IC50 is under 50 nM.

Turning to `C[C@H](CO)NC[C@H]1CCN(c2ccc3c(c2)Cn2cc(-c4ccc(F)cc4)cc2-c2ncnn2-3)C1` [Compound 420, (R)-2-((((R)-1-(12-(4-fluorophenyl)-9H-benzo[e]pyrrolo[1,2-a][1,2,4]triazolo[5,1-c][1,4]diazepin-7-yl)pyrrolidin-3-yl)methyl)amino)propan-1-ol], the IC50 is under 50 nM. Then `CN(C)C[C@H]1CN(c2ccc3c(c2)Cn2cc(-c4ccc(F)cc4)cc2-c2ncnn2-3)C[C@@H]1O` [Compound 421, (3R,4S)-4-((dimethylamino)methyl)-1-(12-(4-fluorophenyl)-9H-benzo[e]pyrrolo[1,2-a][1,2,4]triazolo[5,1-c][1,4]diazepin-7-yl)pyrrolidin-3-ol], with under 50 nM; and `CN(C)C[C@@H]1CN(c2ccc3c(c2)Cn2cc(-c4ccc(F)cc4)cc2-c2ncnn2-3)C[C@H]1O` [Compound 422, (3S,4R)-4-((dimethylamino)methyl)-1-(12-(4-fluorophenyl)-9H-benzo[e]pyrrolo[1,2-a][1,2,4]triazolo[5,1-c][1,4]diazepin-7-yl)pyrrolidin-3-ol], with under 50 nM.

`CC(C)(CO)NC[C@@H]1CCN(c2ccc3c(c2)Cn2cc(-c4ccc(F)cc4)cc2-c2ncnn2-3)C1` [Compound 425, (S)-2-(((1-(12-(4-fluorophenyl)-9H-benzo[e]pyrrolo[1,2-a][1,2,4]triazolo[5,1-c][1,4]diazepin-7-yl)pyrrolidin-3-yl)methyl)amino)-2-methylpropan-1-ol] yielded a half-maximal inhibitory concentration (IC50) of 50 to 100 nM. `CN(C)[C@@H]1CCN(c2ccc3c(c2)Cn2cc(-c4ccc(F)cc4)cc2-c2ncnn2-3)C1` [Compound 426, (R)-1-(12-(4-fluorophenyl)-9H-benzo[e]pyrrolo[1,2-a][1,2,4]triazolo[5,1-c][1,4]diazepin-7-yl)-N,N-dimethylpyrrolidin-3-amine]: the IC50 lay within 50 to 100 nM. The figure for `CN(C)[C@H]1CCN(c2ccc3c(c2)Cn2cc(-c4ccc(F)cc4)cc2-c2ncnn2-3)C1` [Compound 427, (S)-1-(12-(4-fluorophenyl)-9H-benzo[e]pyrrolo[1,2-a][1,2,4]triazolo[5,1-c][1,4]diazepin-7-yl)-N,N-dimethylpyrrolidin-3-amine] is 50 to 100 nM; for `CN(C)C1CCN(c2ccc3c(c2)Cn2cc(-c4ccc(F)cc4)cc2-c2ncnn2-3)CC1` [Compound 428, 1-(12-(4-fluorophenyl)-9H-benzo[e]pyrrolo[1,2-a][1,2,4]triazolo[5,1-c][1,4]diazepin-7-yl)-N,N-dimethylpiperidin-4-amine] it is 50 to 100 nM. The figure for `CN(C)C[C@H]1CN(c2ccc3c(n2)Cn2cc(-c4ccc(F)cc4)cc2-c2ncnn2-3)C[C@H]1O` [Compound 429, (3S,4S)-4-((dimethylamino)methyl)-1-(12-(4-fluorophenyl)-9H-imidazo[2,1-c]pyrido[3,2-e]pyrrolo[1,2-a][1,4]diazepin-7-yl)pyrrolidin-3-ol] is under 50 nM.

For the molecule `CN(C)C[C@@H]1CN(c2ccc3c(n2)Cn2cc(-c4ccc(F)cc4)cc2-c2nccn2-3)C[C@@H]1O` [Compound 430, (3R,4R)-4-((dimethylamino)methyl)-1-(12-(4-fluorophenyl)-9H-imidazo[2,1-c]pyrido[3,2-e]pyrrolo[1,2-a][1,4]diazepin-7-yl)pyrrolidin-3-ol], the IC50 was under 50 nM.

`CN(C)[C@@H]1CN(c2ccc3c(n2)Cn2cc(-c4ccc(F)cc4)cc2-c2nccn2-3)C[C@H]1O` [Compound 431, (3R,4R)-4-(dimethylamino)-1-(12-(4-fluorophenyl)-9H-imidazo[2,1-c]pyrido[3,2-e]pyrrolo[1,2-a][1,4]diazepin-7-yl)pyrrolidin-3-ol]: the half-maximal inhibitory concentration (IC50) is under 50 nM. Then `CN(C)[C@H]1CN(c2ccc3c(n2)Cn2cc(-c4ccc(F)cc4)cc2-c2nccn2-3)C[C@H]1O` [Compound 432, (3R,4S)-4-(dimethylamino)-1-(12-(4-fluorophenyl)-9H-imidazo[2,1-c]pyrido[3,2-e]pyrrolo[1,2-a][1,4]diazepin-7-yl)pyrrolidin-3-ol], with 100 to 200 nM. `CN(C)[C@@H]1CN(c2ccc3c(n2)Cn2cc(-c4ccc(F)cc4)cc2-c2nccn2-3)C[C@@H]1O` [Compound 433, (3S,4R)-4-(dimethylamino)-1-(12-(4-fluorophenyl)-9H-imidazo[2,1-c]pyrido[3,2-e]pyrrolo[1,2-a][1,4]diazepin-7-yl)pyrrolidin-3-ol] displayed an IC50 of 50 to 100 nM. With `C[C@H](CO)NC[C@H]1CCN(c2ccc3c(n2)Cn2cc(-c4ccc(F)cc4)cc2-c2nccn2-3)C1` [Compound 434, (R)-2-((((R)-1-(12-(4-fluorophenyl)-9H-imidazo[2,1-c]pyrido[3,2-e]pyrrolo[1,2-a][1,4]diazepin-7-yl)pyrrolidin-3-yl)methyl)amino)propan-1-ol], the IC50 was under 50 nM. `CN(C)C[C@H]1CN(c2ccc3c(n2)Cn2cc(-c4ccc(F)cc4)cc2-c2nccn2-3)C[C@@H]1O` [Compound 435, (3R,4S)-4-((dimethylamino)methyl)-1-(12-(4-fluorophenyl)-9H-imidazo[2,1-c]pyrido[3,2-e]pyrrolo[1,2-a][1,4]diazepin-7-yl)pyrrolidin-3-ol] yielded an IC50 of under 50 nM. Then `CN(C)C[C@@H]1CN(c2ccc3c(n2)Cn2cc(-c4ccc(F)cc4)cc2-c2nccn2-3)C[C@H]1O` [Compound 436, (3S,4R)-4-((dimethylamino)methyl)-1-(12-(4-fluorophenyl)-9H-imidazo[2,1-c]pyrido[3,2-e]pyrrolo[1,2-a][1,4]diazepin-7-yl)pyrrolidin-3-ol], with under 50 nM; and `C[C@@H](CO)NC[C@H]1CCN(c2ccc3c(n2)Cn2cc(-c4ccc(F)cc4)cc2-c2nccn2-3)C1` [Compound 437, (S)-2-((((R)-1-(12-(4-fluorophenyl)-9H-imidazo[2,1-c]pyrido[3,2-e]pyrrolo[1,2-a][1,4]diazepin-7-yl)pyrrolidin-3-yl)methyl)amino)propan-1-ol], with under 50 nM; and `Fc1ccc(-c2cc3n(c2)Cc2nc(N4CCC5(CNC5)C4)ccc2-n2ccnc2-3)cc1` [Compound 440, 12-(4-fluorophenyl)-7-(2,6-diazaspiro[3.4]octan-6-yl)-9H-imidazo[2,1-c]pyrido[3,2-e] pyrrolo[1,2-a][1,4]diazepine], with under 50 nM. The figure for `CN1CC2(CCN(c3ccc4c(n3)Cn3cc(-c5ccc(F)cc5)cc3-c3nccn3-4)C2)C1` [Compound 441, 12-(4-fluorophenyl)-7-(2-methyl-2,6-diazaspiro[3.4]octan-6-yl)-9H-imidazo[2,1-c]pyrido[3,2-e]pyrrolo[1,2-a][1,4]diazepine] is under 50 nM.
